Source: US9302999B2, “Substituted triazoles as herbicides” (E. I. DU PONT DE NEMOURS AND COMPANY, priority 2012, dated 2016)

Tested on: surinam grass (Brachiaria decumbens)
Assay: Test F pre-/postemergence: surinam grass
Type: in vivo
Conditions: Preemergence
Text: Seeds of plant species selected from corn (Zea mays), soybean (Glycine max), velvetleaf (Abutilon theophrasti), lambsquarters (Chenopodium album), poinsettia, wild (wild poinsettia, Euphorbia heterophylla), pigweed, palmer (palmer pigweed, Amaranthus palmeri), waterhemp (common waterhemp, Amaranthus rudis), surinam grass (Brachiaria decumbens), crabgrass, Brazil (Brazilian crabgrass, Digitaria horizontalis), panicum, fall (fall panicum Panicum dichotomiflorum), crabgrass, large (large crabgrass, Digitaria sanguinalis), foxtail, giant (giant foxtail, Setaria faberii), foxtail, green (green foxtail Setaria viridis), goosegrass (Eleusine indica), ragweed (common ragweed, Ambrosia elatior), barnyardgrass (Echinochloa crus-galli), sandbur (southern sandbur, Cenchrus echinatus), arrowleaf sida (Sida rhombifolia), ryegrass, Italian (Italian ryegrass, Lolium multiflorum), dayflower, VA (Virginia (VA) dayflower, Commelina virginica), field bindweed (Convolvulus arvensis), cocklebur (common cocklebur, Xanthium strumarium), morningglory (Ipomoea coccinea), nightshade (eastern black nightshade, Solanum ptycanthum), kochia (Kochia scoparia), nutsedge, yellow (yellow nutsedge, Cyperus esculentus), johnsongrass (Sorghum halepense), smartweed (ladysthumb smartweed, Polygonum persicaria), and beggarticks (hairy beggarticks, Bidens pilosa), were planted into a silt loam soil and treated preemergence with test chemicals formulated in a non-phytotoxic solvent mixture which included a surfactant. At the same time, plants selected from these crop and weed species and also pigweed (Amaranthus retroflexus), waterhemp_RES1 (ALS/Triazine resistant common waterhemp, Amaranthus rudis) and waterhemp_RES2 (ALS/HPPD resistant common waterhemp, Amaranthus rudis) were planted in pots containing a planting medium comprising spaghnum peat moss, vermiculite, wetting agent and starter nutrients treated with postemergence applications of some of the test chemicals formulated in the same manner. Plants ranged in height from 2 to 18 cm for postemergence treatments (1- to 4-leaf stage).
Treated plants and controls were maintained in a greenhouse for 14 to 21 days, after which time all species were compared to controls and visually evaluated. Plant response ratings, summarized in Table E, are based on a scale of 0 to 100 where 0 is no effect and 100 is complete control. A dash (-) response means no test result.

[1] = 16 g ai/ha, scale 0 to 100, 0 no effect, 100 complete control
[2] = 31 g ai/ha, scale 0 to 100, 0 no effect, 100 complete control

SMILES | Plant response rating, Surinam Grass [1] | Plant response rating, Surinam Grass [2] | Plant response rating, Surinam Grass (125 g ai/ha, scale 0 to 100) | Plant response rating, Surinam Grass (250 g ai/ha, scale 0 to 100)
COc1nn(-c2cccc(F)c2)nc1Cc1ccnc(C(F)(F)F)c1 [Compound 139] | 0 | 0 | 75 | 75
Cc1nn(-c2ccc(F)cc2F)nc1Oc1ccnc(C(F)(F)F)c1 [Compound 146] | 0 | 0 | 20 | 35
CCc1nn(-c2ccc(C(F)(F)F)cc2)nc1Oc1ccnc(C(F)(F)F)c1 [Compound 169] | 0 | 65 | 75 | 100
CCc1nn(-c2ccc(F)c(F)c2)nc1Oc1ccnc(C(F)(F)F)c1 [Compound 171] | 0 | 0 | 10 | 30
CCCc1nn(-c2ccc(F)c(F)c2)nc1Oc1ccnc(C(F)(F)F)c1 [Compound 172] | – | 20 | 35 | 98
